Assay results reported in patent publication US20170157103A1, “METHODS OF TREATING DIFFUSE LARGE B-CELL LYMPHOMA USING 3-(4-AMINO-1-OXOISOINDOLIN-2-YL)PIPERIDINE-2,6-DIONE” (Celgene Corporation, priority 2015, published 2017).

Tests used:
[1] = tested on: relapsed or refractory diffuse large B-cell lymphoma; assay: Clinical trial of lenalidomide vs control in relapsed or refractory DLBCL patients, subtype determined by Affymetrix; assay type: in vivo, human; settings: for Median overall survival / Median progression free survival: relapsed or refractory DLBCL patients
From the text: DLBCL lymph-node biopsies were either snap frozen or formalin fixed and paraffin embedded similarly to that described by Scott et al., Blood 2014 123(8) 1214-1217, the disclosure of which is incorporated herein in its entirety. Messenger RNA was purified and reverse transcribed into cDNA.
DNA microarray analysis of gene expression was done essentially as described below. The cDNA clones on the Lymphochip microarray are available from Research Genetics. Fluorescent images of hybridized microarrays were obtained using a GenePix 4000 microarray scanner (Axon Instruments). Images were analysed with ScanAlyze (M. Eisen; http://www.microarrays.org/software), and fluorescence ratios (along with numerous quality control parameters; see ScanAlyze manual) were stored in a custom database. Single spots or areas of the array with obvious blemishes were flagged and excluded from subsequent analyses. Fluorescence ratios were calibrated independently for each array by applying a single scaling factor to all fluorescent ratios from each array; this scaling factor was computed so that the median fluorescence ratio of well-measured spots on each array was 1.0.
All cDNA microarray analyses were performed using poly-(A)^+ mRNA (Fast Track, Invitrogen). In each experiment, fluorescent cDNA probes were prepared from an experimental mRNA sample (Cy5-labelled) and a control mRNA sample (Cy3-labelled) isolated from a pool of nine lymphoma cell lines (Raji, Jurkat, L428, OCI-Ly3, OCI-Ly8, OCI-Lyl, SUDHL5, SUDHL6 and WSU1). The use of a common control cDNA probe allows the relative expression of each gene to be compared across all samples.
All non-flagged array elements for which the fluorescent intensity in each channel was greater than 1.4 times the local background were considered well measured. The ratio values were log-transformed (base 2) and stored in a table (rows, individual cDNA clones; columns, single mRNA samples). Data for the genes were centered by subtracting (in log space) the median observed value, to remove any effect of the amount of RNA in the reference pool. This dataset contains 4,026 array elements. Hierarchical clustering was applied to both axes using the weighted pair-group method with centroid average as implemented in the program Cluster (M. Eisen; http://www.microarrays.org/software). The distance matrixes used were Pearson correlation for clustering the arrays and the inner product of vectors normalized to magnitude 1 for the genes. The results were analysed with Tree View (M. Eisen; http://www.microarrays.org/software).
(§1) This clinical benefit is observed when subtype is determined by the Affymetrix test (FIG. 1) or by the NanoString test (FIG. 2).

[2] = tested on: relapsed or refractory diffuse large B-cell lymphoma; assay: Clinical trial of lenalidomide vs control in relapsed or refractory DLBCL patients, subtype determined by NanoString; assay type: in vivo, human; settings: for Median overall survival / Median progression free survival: relapsed or refractory DLBCL patients
From the text: DLBCL lymph-node biopsies were formalin fixed and paraffin embedded (FFPE) similarly to that described in Scott et al., Blood 2014 123(8) 1214-1217, the disclosure of which is incorporated by reference herein. Nucleic acids obtained from the tissues were extracted using the QIAGEN AllPrep DNA/RNA FFPE Kit, with deparaffinization achieved using the QIAGEN Deparaffinization Solution, according to the manufacturer's instructions. The RNA was quantitated using spectrophotometry (NanoDrop, Thermo Science, DE). Gene expression on approximately 200 nanograms of RNA was used to determine gene expression levels by means of NanoString technology (NanoString Technologies, WA). The total RNA was hybridized to the custom codesets at 65° C. overnight. The reaction was processed on the nCounter™ Prep Station and gene expression data was then acquired on the nCounter™ Digital Analyzer.
as §1

[3] = ABC plus unclassified subtype (by Affymetrix)
[4] = ABC plus unclassified subtype (by Nanostring)

Nc1cccc2c1CN(C1CCC(=O)NC1=O)C2=O (centres unmarked) [lenalidomide, 3-(4-amino-1-oxoisoindolin-2-yl)piperidine-2,6-dione]
Clinical benefit compared to control as measured by progression free survival ([1]; ABC DLBCL subtype patients and unclassifiable patients, subtype by Affymetrix test (FIG. 1)): benefit | Median overall survival [1, 3]: 16.3/33^ weeks | Median progression free survival [1, 3]: 6.3/9.1 weeks | Median overall survival ([1]; ABC subtype (by Affymetrix)): 18.6/108.4 weeks | Median progression free survival ([1]; ABC subtype (by Affymetrix)): 6.2/82 weeks | Median overall survival ([1]; GBC subtype (by Affymetrix)): 20/30 weeks | Median progression free survival ([1]; GBC subtype (by Affymetrix)): 7.1/13.2 weeks | Clinical benefit compared to control as measured by progression free survival ([2]; ABC DLBCL subtype patients and unclassifiable patients, subtype by NanoString test (FIG. 2)): benefit | Median overall survival [2, 4]: 36.9/108.4 weeks | Median progression free survival [2, 4]: 6.6/82 weeks | Median overall survival ([2]; ABC subtype (by Nanostring)): 37/43.7 weeks | Median progression free survival ([2]; ABC subtype (by Nanostring)): 6/27 weeks | Median overall survival ([2]; GBC subtype (by Nanostring)): 34.9/18 weeks | Median progression free survival ([2]; GBC subtype (by Nanostring)): 9/8.7 weeks
